{"source": "patent US20050238628A1", "about": "“Methods for treating cancer” (priority 2004, published 2005)", "key": {"[1]": {"system": "Ba/F3 cells expressing EpoR/Abl mixed with Ba/F3 cells expressing GyrB/Flt3", "test": "Mixed culture of EpoR/Abl and GyrB/Flt3 Ba/F3 cells, HA tag flow cytometry", "format": "cell-based", "details": "coumermycin 1 nM, absence of IL-3, 4 days, flow cytometry for HA tag; FIG. 2", "experimental": "A cDNA containing the EpoRIAbl construct was used to transduce Ba/F3 cells by retroviral gene transfer. After two days, IL-3 containing medium was washed away, and cells were cultured in the presence of erythropoietin (3 units/ml), without IL-3, to generate a polyclonal pool of erythropoietin dependent cells.\n(§1) An MSCV-based vector was constructed that encodes a fusion protein containing a myristylation domain linked to DNA gyrase B, which in turn is linked to the intracellular portion of murine flt-3, which in turn is linked to an HA epitope tag. […] Ba/F3 cells expressing the GyrB/Flt3 construct can be distinguished from Ba/F3 cells expressing EpoR/Abl using intracellular flow cytometry with an antibody directed against the HA tag.\nAfter 4 days, the frequency of cells expressing the HA tag was determined by flow cytometry."}, "[2]": {"system": "Ba/F3 cells expressing the GyrB/Flt3 construct", "test": "Growth of Ba/F3 cells expressing GyrB/Flt3 in the presence of the CID coumermycin", "format": "cell-based", "details": "FIG. 1", "source_text": "as §1"}, "Reh cells (EpoR)": {"system": "Reh cells (EpoR)", "test": "STAT5 phosphorylation in Reh cells upon addition of erythropoietin", "format": "cell-based", "details": "human TEL/AML1+ ALL line", "source_text": "A number of nonerythroid cell lines have been examined for EpoR expression."}, "Ba/F3EpoRAbl cells": {"system": "Ba/F3EpoRAbl cells", "details": "nude mice, tail vein injection of cells followed by injections of erythropoietin; cited from earlier work"}}, "note": "Entries after “also recorded” stand apart in the source; their conditions may differ."}
{"substance": "coumermycin", "values": [{"measurement": "erythropoietin responsive (HA-negative) cells in mixed culture", "setting": "[1]", "value": "sharp reduction in erythropoietin responsive (HA-negative) cells"}, {"measurement": "growth of Ba/F3 cells in the presence of the CID", "setting": "[2]", "value": "capable of growth; also recorded: capable of group"}]}
{"substance": "erythropoietin", "values": [{"measurement": "STAT5 phosphorylation", "setting": "Reh cells (EpoR)", "value": "exhibit STAT5 phosphorylation"}, {"measurement": "death of mice injected with Ba/F3EpoRAbl cells", "setting": "Ba/F3EpoRAbl cells", "value": "induce death with a timecourse that is dependent on the concentration of exogenously administered Epo"}]}
